Assay results as given in US5324725A, “7-fused 2-(piperazinoalkyl) indole derivatives, intermediates and compositions thereof” (Kali-Chemie Pharma GmbH, priority 1991, dated 1994).
Where two headings read alike, the source gives them in different places.

How the values were obtained:
cyclooxygenase = molecular target: T1, cyclooxygenase (Mus musculus, UniProt P22437); test: Cyclooxygenase inhibition: release of 6-keto-PGF1 α from zymosan-stimulated mouse peritoneal macrophage cells; assay type: cell-based; details: 10^-5 mol/l, read-out: In vitro % inhibition effect on the release of 6-keto-PGF1 α
T1 construct: A cell suspension containing peritoneal cells of male mice 8-10 weeks old was obtained; endogenous in cells; host or cells: mouse peritoneal macrophages (male mice 8-10 weeks old), zymosan-stimulated
T1 sequence (P22437 27-602): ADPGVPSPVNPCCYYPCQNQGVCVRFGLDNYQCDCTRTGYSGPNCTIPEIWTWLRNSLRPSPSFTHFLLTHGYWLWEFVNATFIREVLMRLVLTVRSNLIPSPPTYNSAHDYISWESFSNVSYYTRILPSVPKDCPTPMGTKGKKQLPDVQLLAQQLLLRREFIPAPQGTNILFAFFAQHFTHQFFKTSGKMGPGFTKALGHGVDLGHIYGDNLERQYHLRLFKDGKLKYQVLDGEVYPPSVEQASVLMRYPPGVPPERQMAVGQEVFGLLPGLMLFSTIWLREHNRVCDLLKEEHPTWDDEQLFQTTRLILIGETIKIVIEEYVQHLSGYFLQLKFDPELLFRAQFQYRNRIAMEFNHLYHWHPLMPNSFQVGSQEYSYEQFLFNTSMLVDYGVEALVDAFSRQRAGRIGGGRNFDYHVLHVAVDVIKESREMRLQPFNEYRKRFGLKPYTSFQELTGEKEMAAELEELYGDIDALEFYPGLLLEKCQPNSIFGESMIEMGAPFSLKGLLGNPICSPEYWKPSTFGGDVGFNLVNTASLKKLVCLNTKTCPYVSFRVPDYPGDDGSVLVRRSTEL
From the text: 5. In vitro determination of cyclooxygenase inhibition and 5-lipoxygenase inhibition.
After activation of the cell, arachidonic acid contained in cell membranes is metabolized in two ways. Leukotrienes, inter alia leukotriene C4, are formed under the action of the enzyme 5-lipoxygenase (5-LO), and prostanoids are formed under the action of the enzyme cyclooxygenase (CO). In in vitro systems, the metabolites are secreted from the cell.
To investigate the cyclooxygenase-inhibiting and the 5-lipoxygenase-inhibiting properties, the inhibitory effect of the test substances on the biosynthesis of the arachidonic acid derivatives leukotriene C4 (LTC4) and 6-ketoprostaglandin F1 α (6-keto-PGF1 α) is determined in vitro on mouse peritoneal macrophage cells. This was accomplished by determining the LTC4 and 6-keto-PGF1 α contents in a culture medium of mouse peritoneal macrophage cells by zymosan stimulation as described by Scott et al. (J. Exp. Med. 152 (1980), 324-335) and by Fradin et al. (Prostaglandins, 33 (1987), 579-589).
A cell suspension containing peritoneal cells of male mice 8-10 weeks old was obtained in a known manner. A commercially available cell culture solution (RPMI 1640 from Messrs. Gibco) was used to which heparin (I0 international units/ml) and antibiotics were added according to the recipe of Bonney et al. (Biochem. J. 176 (1978) 422-433). The cell suspension was adjusted to a cell concentration of 10^6 cells per ml and distributed uniformly on titer plates containing […] (wells). These were kept for two hours in a humidified incubator filled with air enriched with 7% CO2. Cells not adhering to the titer cell walls were then removed by washing. The remaining macrophage cells adhering to the walls were incubated for about 12 hours in a suspension medium to which 0.1% bovine serum albumin (BSA) were added. The suspension medium was then replaced by a Hanks balanced salt solution (HBSS) containing 10 mM Hepes (hydroxyethyl-piperazinoethanesulfonic acid), to which a 0.1% strength solution of the test substances in aqueous, 1% strength dimethylformamide or only the solvent had been added. After 15 minutes the arachidonic acid metabolism was stimulated by adding 10 particles of zymosan (=glycoproteinmixture, isolated from cell walls of beer yeast, Saccharomyces cerevisiae, manufactured by Sigma Chemical Co., Munich) per titer cell. After 2 hours, samples of each of the supernatant liquids were investigated for their 6-keto-PGF1 α and LTC4 contents by means of an enzyme immunoassay (EIA) carried out by the method of Pradelles et al. (Analytical Chem. 57 (1985), 1170-1173). The determination of LTC4 and the determination of 6-keto-PGF1 α were each carried out in comparison with a comparative scale on suitable dilutions of the samples (1:50 to 1:250 for the LTC4 determination and 1:250 to 1:1250 for the 6-keto-PGF1 α determination). To determine the inhibitory effect of a 10^-5 molar concentration of the compounds, the amount of reference eicosanoids was determined and the inhibitory effect was calculated from this in % inhibition compared to the measurements of the zymosan controls.

histamine (H1) receptor = molecular target: T2, histamine (H1) receptor (Cavia porcellus, UniProt P31389); test: Antihistamine (H1) effect: inhibition of histamine-induced contractions of isolated guinea-pig ileum in vitro; assay type: cell-based, guinea-pig (Dunkin Hartley); details: histamine 5 × 10^-6 mol/l, test substance 10^-6 mol/l
T2 construct: isolated smooth muscle of the guinea-pig ileum; from tissue; host or cells: isolated ileum segments of Dunkin Hartley guinea-pigs
Procedure, shortened: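 Dunkin Hartley guinea-pig ileum segments (300-500 g animals) in Krebs-Henseleit, pH 7.4, 5% CO2/95% O2, 1 g tension, isotonic recording. Compound at 10^-6 mol/l for 30 s before histamine 5×10^-6 mol/l; contraction measured over 30 s, repeated 10 min after washout, expressed as % inhibition.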

[1] = after 30 sec., read-out: in vitro (H1) receptor antagonism % inhibitory effect on histamine-induced contractions of the Ileum, after 30 sec.
[2] = after 10 min. (after washing), read-out: in vitro (H1) receptor antagonism % inhibitory effect on histamine-induced contractions of the Ileum, after 10 min.

T2 sequence (P31389 whole entry): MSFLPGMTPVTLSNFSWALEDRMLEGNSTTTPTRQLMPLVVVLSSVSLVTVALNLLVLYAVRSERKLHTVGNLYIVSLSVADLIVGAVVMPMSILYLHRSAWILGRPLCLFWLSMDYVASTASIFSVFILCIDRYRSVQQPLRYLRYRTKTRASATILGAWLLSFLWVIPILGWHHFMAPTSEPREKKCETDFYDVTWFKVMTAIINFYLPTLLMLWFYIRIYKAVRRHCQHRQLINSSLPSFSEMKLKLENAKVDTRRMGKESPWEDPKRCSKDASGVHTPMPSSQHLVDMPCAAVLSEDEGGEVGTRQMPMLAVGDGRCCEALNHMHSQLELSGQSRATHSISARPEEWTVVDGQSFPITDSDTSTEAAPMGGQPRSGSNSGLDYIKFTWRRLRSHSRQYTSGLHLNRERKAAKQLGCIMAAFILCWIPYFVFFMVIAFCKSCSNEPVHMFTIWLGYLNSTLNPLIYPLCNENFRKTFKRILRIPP

| inhibition at 10 µM (cyclooxygenase) | inhibition at 1 µM (histamine (H1) receptor; [1]) | inhibition at 1 µM (histamine (H1) receptor; [2]) | in vitro (H1) receptor antagonism % inhibitory effect on histamine-induced contractions of the Ileum, after 30 sec. (histamine (H1) receptor; after 30 sec.) | in vitro (H1) receptor antagonism % inhibitory effect on histamine-induced contractions of the Ileum, after 10 min. (histamine (H1) receptor; after 10 min. (after washing)) | SMILES |
| --- | --- | --- | --- | --- | --- |
| 29% | – | – | – | – | CCCCC1CCc2cccc3c(CCN4CCN(c5cc(C)ccn5)CC4)c(C)n1c23 (stereo not shown) [Example 73, 4-n-butyl-5,6-dihydro-2-methyl-1-{2-[4-(4-methylpyridin-2-yl)piperazin-1-yl]ethyl}-4H-pyrrolo[3,2,1-ij]quinoline] |
| 29% | 12% | 52% | – | – | Cc1ccnc(N2CCN(CCc3c(C)n4c5c(cc(C(=O)C6CCCCC6)cc35)CCC4)CC2)c1 [Example 83] |
| 68% | 15% | 42% | – | – | CC(C)=Cc1cc2c3c(c1)c(CCN1CCN(c4cc(C)ccn4)CC1)c(C)n3CCC2 [Example 26, 5,6-Dihydro-2-methyl-8-(2-methylprop-1-enyl)-1-{2-[4-(4-methylpyridin-2-yl)piperazin-1-yl]ethyl}-4H-pyrrolo[3,2,1-ij]quinoline] |
| 38% | 17% | 67% | – | – | CCCCC1CCc2cc(OC)cc3c(CCN4CCN(c5cc(C)ccn5)CC4)c(C)n1c23 (stereo not shown) [Example 63] |
| 67% | 3% | 67% | – | – | CCCCC1CCc2cc(O)cc3c(CCN4CCN(c5cc(C)ccn5)CC4)c(C)n1c23 (stereo not shown) [Example 76] |
| 52% | – | – | – | – | Cc1ccnc(N2CCN(CC(O)c3c(C4CCCCC4)n4c5c(cccc35)CCC4)CC2)c1 (stereo not shown) [Example 85] |
| 57% | 11% | 23% | – | – | Cc1c(CCN2CCN(c3ccc(Br)cn3)CC2)c2cccc3c2n1CCC3 [Example 43] |
| 20% | – | – | – | – | CCCCCCCC1CCc2cccc3c(CCN4CCN(c5cc(C)ccn5)CC4)c(C)n1c23 (stereo not shown) [Example 4, 4-n-heptyl-5,6-dihydro-2-methyl-1-{2-[4-(4-methylpyridin-2-yl)piperazin-1-yl]ethyl}-4H-pyrrolo[3,2,1-ij]-quinoline] |
| 69% | – | – | – | – | Cc1ccnc(N2CCN(CCc3c(-c4ccc(F)cc4)n4c5c(cccc35)CCC4)CC2)c1 [Example 47] |
| 10% | 33% | 92% | – | – | Cc1ccnc(N2CCN(CCc3c(C)n4c5c(cc(C(=O)C(C)C)cc35)CCC4)CC2)c1 [Example 27, 5,6-dihydro-2-methyl-8-(2-methyl-1-oxopropyl)-1-{2-[4-(4-methylpyridin-2-yl)piperazin-1-yl]ethyl}-4H-pyrrolo-[3,2,1-ij]quinoline] |
| 24% | 10% | 77% | – | – | Cc1ccnc(N2CCN(CCc3c(C)n4c5c(cc(NC(=O)c6ccccc6)cc35)CCC4)CC2)c1 [Example 25, 8-Benzoylamino-5,6-dihydro-2-methyl-1-{2-[4-(4-methylpyridin-2-yl)piperazin-1-yl]-ethyl}-4H-pyrrolo[3,2,1-ij]quinoline] |
| 12% | – | – | 15% | 63% | CNc1cc2c3c(c1)c(CCN1CCN(c4cc(C)ccn4)CC1)c(C)n3CCC2 [Example 80] |
| 53% | – | – | – | – | Cc1ccnc(N2CCN(CCc3c(-c4ccc(OCCCCO)cc4)n4c5c(cccc35)CCC4)CC2)c1 [Example 12, 2-[4-(4-Hydroxybutyloxy)-phenyl]-1-{2-[4-(4-methylpyridin-2-yl)piperazin-1-yl]ethyl}-5,6-dihydro-4H-pyrrolo[3,2,1-ij]quinoline] |
| 52% | 21% | 48% | – | – | COc1ccc(C2CCc3cc(OC)cc4c(CCN5CCN(c6cc(C)ccn6)CC5)c(C)n2c34)cc1 (stereo not shown) [Example 65] |
| 43% | 7% | 38% | – | – | CCCCC1CCc2cc(C(=O)C(C)C)cc3c(CCN4CCN(c5cc(C)ccn5)CC4)c(C)n1c23 (stereo not shown) [Example 23, 4-n-Butyl-5,6-dihydro-8-(2-methyl-1-oxopropyl)-2-methyl-1-{2-[4-(4-methylpyridin-2-yl)piperazin-1-yl]ethyl}-4H-pyrrolo[3,2,1-ij]quinoline] |
| 42% | – | – | – | – | Cc1ccnc(N2CCN(CCc3c(C)n4c5c(cc(Cc6ccccc6)cc35)CCC4)CC2)c1 [Example 77] |
| 43% | – | – | – | – | COc1ccc(C2CCc3cccc4c(CCN5CCN(c6cc(C)ccn6)CC5)c(C)n2c34)cc1 (stereo not shown) [Example 59] |
| 21% | 45% | 96% | – | – | Cc1ccnc(N2CCN(CCc3c(C)n4c5c(cccc35)CC4C)CC2)c1 (stereo not shown) [Example 33] |
| 20% | – | – | – | – | Cc1ccnc(N2CCN(CCc3c(C)n4c5c(cccc35)CCC4C3CCCCC3)CC2)c1 (stereo not shown) [Example 87] |
| 52% | – | – | – | – | Cc1ccnc(N2CCN(CCc3c(C)n4c5c(c(Cl)cc(Cl)c35)OCC4)CC2)c1 [Example 79] |
| 65% | – | – | – | – | Cc1ccnc(N2CCN(CCc3c(C)n4c5c(cccc35)CCC4c3ccc(O)cc3)CC2)c1 (stereo not shown) [Example 61] |
| 49% | – | – | – | – | COc1ccc(-c2c(CCN3CCN(c4cc(C)ccn4)CC3)c3cccc4c3n2CCC4)cc1 [Example 7, 2-(4-methoxy-phenyl)-1-{2-[4-(4-methylpyridin-2-yl)piperazin-1-yl]ethyl}-5,6-dihydro-4H-pyrrolo[3,2,1-ij]quinoline] |
| 16% | – | – | – | – | Cc1ccnc(N2CCN(CCc3c(C)n4c5c(cc(N(C)C)cc35)CCC4)CC2)c1 [Example 81] |
| 74% | – | – | – | – | Cc1ccnc(N2CCN(CCc3c(-c4ccc(O)cc4)n4c5c(cccc35)CCC4)CC2)c1 [Example 8, 2-(4-hydroxyphenyl)-1-{2-[4-(4-methylpyridin-2-yl)piperazin-1-yl]ethyl}-5,6-dihydro-4H-pyrrolo[3,2,1-ij]quinoline] |
| 32% | – | – | – | – | Cc1ccnc(N2CCN(CCc3c(C)n4c5c(c(C(O)C(C)C)ccc35)SCC4)CC2)c1 (stereo not shown) [Example 89] |

| SMILES | inhibition at 10 µM (cyclooxygenase) | inhibition at 1 µM (histamine (H1) receptor; [1]) | inhibition at 1 µM (histamine (H1) receptor; [2]) | in vitro (H1) receptor antagonism % inhibitory effect on histamine-induced contractions of the Ileum, after 30 sec. (histamine (H1) receptor; after 30 sec.) | in vitro (H1) receptor antagonism % inhibitory effect on histamine-induced contractions of the Ileum, after 10 min. (histamine (H1) receptor; after 10 min. (after washing)) |
| --- | --- | --- | --- | --- | --- |
| Cc1ccnc(N2CCN(CCc3c(C)n4c5c(cccc35)CCC4)CC2)c1 [Example 1, 5,6-Dihydro-2-methyl-1-{2-[4-(4-methylpyridin-2-yl)piperazin-1-yl]ethyl}-4H-pyrrolo[3,2,1-ij]quinoline] | 23% | 42% | 88% | – | – |
| CCc1c(C(O)CN2CCN(c3cc(C)ccn3)CC2)c2cccc3c2n1CCC3 (stereo not shown) [Example 14, 2-Ethyl-5,6-dihydro-1-{2-[4-(4-methylpyridin-2-yl)piperazin-1-yl]-1-hydroxyethyl}-4H-pyrrolo[3,2,1-ij]quinoline] | 25% | – | – | – | – |
| Cc1cc2c3c(c1)c(CCN1CCC(C(=O)c4ccc(F)cc4)CC1)c(C)n3CCC2 [Example 55] | 41% | – | – | – | – |
